Literature values in patent publication US12070503B2, “Transdermal carrier” (priority 2014, dated 2024).

Tests used:
[1] = difficult to measure, considered generally
[2] = tested on: HSV-infected cells; conditions: compared with alternatives such as Abreva
[3] = tested on: hair follicles; conditions: concentrations of 2% and 5%; published studies

SMILES: C[C@H](CCC(=O)O)[C@H]1CC[C@H]2[C@@H]3CC[C@@H]4C[C@H](O)CC[C@]4(C)[C@H]3C[C@H](O)[C@]12C [DCA, deoxycholic acid]
- half-life [1]: less than 30 minutes

SMILES: Nc1nc2c(ncn2CCC(CO)CO)c(=O)[nH]1 [Penciclovir, penciclovir]
- effectiveness against HSV-infected cells [2]: more effective

SMILES: Nc1cc(N2CCCCC2)nc(N)[n+]1[O-] [minoxidil]
- treatment time before evidence of hair growth was demonstrated [3]: > 8 months
